Data as given in article PMC6298966, “HAI Peptide and Backbone Analogs—Validation and Enhancement of Biostability and Bioactivity of BBB Shuttles” (Scientific Reports, 2018).
Like-named read-outs stand apart in the source and are kept apart here. Residues, ends and D or L forms follow the SMILES beside them.

Experiments:
[1] = Peptide stability in human serum; assay type: in vitro ADME; details: male, human serum diluted with HBSS, 24 h, RP-HPLC; for half-life: human serum
Experimental: Nevertheless, peptides formed by L-amino acids have a short in vivo half-life in serum, which can reduce their potential bioactivity. The sensitivity of this peptide to proteases was tested at a concentration of 150 μM in HBSS/human serum 90:10 (v/v) for 24 h. At several time points, an aliquot was extracted, precipitated serum proteins with MeOH and then analyzed by RP-HPLC.
Peptides were dissolved in 1 mL of HBSS buffer/human serum (from human male AB plasma; Sigma-Aldrich) 10:90 (v/v) at a final concentration of 200 µM and incubated at 37 °C for 24 h. Aliquots of 50 µL were extracted at a range of incubation times and treated with 200 µL of cold CH3OH (4 °C) to precipitate serum proteins. After 30 min, samples were centrifuged at 13,000 g and 4 °C for 30 min. Supernatants were analyzed by RP-HPLC-PDA and MALDI-TOF MS, using similar procedures as for the quantification of the in vitro cell-based BBB model.

[2] = test system: bovine brain endothelial cells (BBECs); assay: Internalization of Cf-labeled peptides by BBECs (CLSM, flow cytometry); assay type: cell-based; details: for Internalization with respect to the parent version (HAI): 50 μM; for Internalization with respect to the parent version (HAI) / Internalization profile among candidates: 3 h, 37 °C; for Internalization profile among candidates: Cf-labeled peptides 50 μM (R8 15 μM)
rat astrocytes [3] = assay: Internalization of Cf-labeled peptides by rat astrocytes (CLSM, flow cytometry); assay type: cell-based; details: for Internalization with respect to the parent version (HAI): 50 μM; for Internalization with respect to the parent version (HAI) / Internalization profile among candidates: 3 h, 37 °C; for Internalization profile among candidates: Cf-labeled peptides 50 μM (R8 15 μM)
in vitro human BBB model = assay: In vitro human BBB cell-based model assay; assay type: in vitro ADME; details: 50, 250 and 1250 μM
Experimental: The discrepancy between internalization and transport of (NMe)HAI is probably due to an increase in lipophilicity after methylation of the backbone, thereby enhancing internalization by passive diffusion but not favoring the transcytosis. To ensure that rD-HAI crosses the BBB through active transport, we proceeded to test its mechanism of transport using a human model of the BBB.
This assay was performed using the model published by Cecchelli and co-workers[53]. Endothelial cells and pericytes were defrosted in gelatin-coated Petri dishes (Corning). Pericytes and endothelial cells were cultured in DMEM pH 6.8 or in supplemented endothelial cell growth medium (Sciencells), respectively. After 48 h, pericytes (50,000 cells/well) and endothelial cells (80,000 cells/well) were seeded in gelatin-coated 12-well plates or in Matrigel-coated 12-well Transwell inserts (Corning), respectively. Medium was changed every 2–3 days and assays were performed 7–8 days after seeding. […] […] Then, 500 µL of the compound and 1,500 µL of Ringer-HEPES alone were introduced in the apical or in the basolateral compartments, respectively. The plates were set on at 37 °C for 2 h. The solutions from both compartments were then recovered and quantified by HPLC and identified by MALDI-TOF.

[4] = Caco-2 intestinal barrier model assay; details: human, Caco-2
Experimental: (§2) In a subsequent step we evaluated the transport capacity of these peptides using two in vitro barrier models, namely in an intestine (Caco-2 assay)[41] and a BBB model[39],[40] […] In these models, two compartments are separated by a membrane containing a monolayer of endothelial cells which mimics either the intestinal barrier or the BBB. One compartment contains the peptide, which is incubated for 2 h. The amount of peptide in each compartment is then analyzed to determine apparent permeability (Papp, in cm/s) and transport (T, in %). The integrity of the compound in the acceptor compartment is assessed by mass spectrometry (MS).
(§3) The ability of peptides to overcome the intestinal barrier was tested using Caco-2 cells. […] Briefly, experiments were done with cells (passage between 60 and 80) seeded on 4.67 cm^2 filters at a density of 5.25·10^4 cell/cm^2. Peptides dissolved in HBSS were incubated for 2 h at a 50 μM concentration with cell layers at 37 °C and 5% CO2. After the experiment, the content of each compartment was directly analyzed by HPLC and then transport (in %) and Papp were determined.

Caco-2 cells [5] = assay: Caco-2 intestinal barrier model assay; details: for Caco-2 transport: Table 2; for Caco-2 transport / Caco-2 T (%): 2 h at 37 °C, HBSS, 50 μM, RP-HPLC; for Detection by MALDI-TOF MS in acceptor wells: Caco-2 assay, after 2 h; for Caco-2 T (%): Table 1
Experimental: as §2, §3

[6] = In vitro bovine BBB cell-based model assay; details: BBB Papp, 200 μM, RP-HPLC; for Papp at 2 h, 200 μM: bovine
Experimental: (§4) In these models, two compartments are separated by a membrane containing a monolayer of endothelial cells which mimics either the intestinal barrier or the BBB. One compartment contains the peptide, which is incubated for 2 h. The amount of peptide in each compartment is then analyzed to determine apparent permeability (Papp, in cm/s) and transport (T, in %). The integrity of the compound in the acceptor compartment is assessed by mass spectrometry (MS).
(§5) This assay was an adapted model[10] of the method previously published by Gaillard and de Boer[52]. Briefly, TEER was measured in all transwells (TEER > 100 Ω·cm^2), before performing the assay. […] The apical compartment was filled with 200 μL of the solution containing the peptide, and 800 µL of Ringer-HEPES was poured into the basal well. Three replicates of each peptide were assayed. The plate was left for 2 h in the incubator at 37 °C. Finally, the samples were collected and analyzed or frozen until analysis. LY fluorescence was measured in a 96-well plate with a Fluoroskan Ascent Microplate Fluorometer (Thermo Fisher Scientific).
(§6) In vitro Transport of AuNPs in using a Bovine BBB Cell-Based Model Assay. To assess the
(§7) capacity of HAI to cross the BBB, this peptide was conjugated to AuNPs and then assay ed in an in
vitro BBB cell-based model.

[7] = test system: in vitro bovine BBB model; assay: In vitro bovine BBB cell-based model assay; details: for BBB T (%): 200 μM, RP-HPLC
Experimental: as §4, §5, §6, §7
vitro BBB cell-based model.

[8] = test system: bovine brain endothelial cells (BBECs); assay: MTT toxicity assay in BBECs; assay type: cell-based; details: 50 μM, 24 h
Experimental: (§1) The assay was performed in 96-well plates, adding 3,150 cells to each well in 100 μL (immortalized cell line –i.e. BBECs) or 7,000 cells in 100 μL (primary cultures –i.e. rat astrocytes), seeded 24 h before performing the experiment. Cells were incubated with each peptide at a range of concentrations (20, 50 and 500 μM) in cellular medium for 24 h at 37 °C and 5% CO2. After 22 h, MTT (3-(4,5-dimethylthiazol-2-yl)−2,5-diphenyltetrazolium bromide) was added to a final concentration of 0.5 mg/mL. The cells with peptides and MTT were incubated for further 2 h. The medium was then discarded and 200 μL of 2-propanol was added to each well to dissolve the purple formazan, product of the conversion of MTT by the mitochondrial enzyme […]. The plate was kept in an orbital shaker for 30 min (15 rpm) to ensure the complete dissolution of formazan. Finally, absorbance was measured at 570 nm and cell viability percentages were calculated dividing the absorbance value of cells treated with a given peptide by the absorbance value of untreated cells. Experiments for each peptide were carried out by triplicate. Cells incubated with 1% SDS were used as control of 0% viability (value subtracted to all samples before viability calculus per each peptide).

rat astrocytes [9] = assay: MTT toxicity assay in rat astrocytes; assay type: cell-based; details: 50 μM, 24 h
Experimental: as §1

Caco-2 cells [10] = test system: Caco-2 cells
Experimental: as §2, §3

[11] = test system: in vitro bovine BBB model
Experimental: as §4, §5, §6, §7
vitro BBB cell-based model.

in vitro = details: bovine
Experimental: as §4, §5, §6, §7
vitro BBB cell-based model.

Molecule: CC[C@@H](C)[C@@H](NC(=O)[C@@H](Cc1ccc(O)cc1)NC(=O)[C@H]1CCCN1C(=O)[C@@H](CCCNC(=N)N)NC(=O)[C@H](N)Cc1c[nH]cn1)C(=O)N[C@H](C)C(=O)N[C@H](Cc1c[nH]cn1)C(N)=O [rD-HAI, H-hrpyiah-NH2]
- half-life [1]: > 1440 min
- Internalization with respect to the parent version (HAI) [2]: maintained the internalization rate
- Internalization with respect to the parent version (HAI) (rat astrocytes [3]): maintained the internalization rate
- Transport at increasing concentrations (in vitro human BBB model): saturation of transport
- Papp at 2 h, 50 μM [4]: 0.00012 ± 0.0001 ×10⁻⁶ cm/s
- Caco-2 transport (Caco-2 cells [5]): 0.4 ± 0.3
- Papp at 2 h, 200 μM ([6]; Table 2, 2 h at 37 °C): 14 ± 2 ×10⁻⁶ cm/s
- BBB T (%) ([7]; Table 2, 2 h at 37 °C): 17 ± 3%
- BBB transport rate relative to the parent version ([7]; vs HAI): around 1.5 times

Molecule: Penetratin
- Internalization profile among candidates [2]: highest internalization profiles
- Internalization profile among candidates (rat astrocytes [3]): highest internalization profiles

Molecule: N=C(N)NCCC[C@H](NC(=O)[C@H](CCCNC(=N)N)NC(=O)[C@H](CCCNC(=N)N)NC(=O)[C@H](CCCNC(=N)N)NC(=O)[C@H](CCCNC(=N)N)NC(=O)[C@H](CCCNC(=N)N)NC(=O)[C@H](CCCNC(=N)N)NC(=O)[C@@H](N)CCCNC(=N)N)C(=O)O [Peptide R8]
- Internalization profile among candidates [2]: highest internalization profiles
- Internalization profile among candidates (rat astrocytes [3]): highest internalization profiles
- Detection by MALDI-TOF MS in acceptor wells (Caco-2 cells [5]): detected
- Caco-2 T (%) (Caco-2 cells [5]): 0%
- Papp ([6]; Table 1, 2 h at 37 °C): 0.6 ± 0.06 ×10⁻⁶ cm/s
- BBB T (%) ([7]; Table 1, 2 h at 37 °C): 0.68 ± 0.07%

Molecule: TAT: HIV TAT 48–57 peptide, derived from the transcriptional trans-activator protein of HIV-1; cell-penetrating peptide (GRKKRRQRRR; UniProt P04608 48-57, looked up, fragment)
- Internalization profile among candidates [2]: highest internalization profiles
- Internalization profile among candidates (rat astrocytes [3]): highest internalization profiles
- Caco-2 T (%) (Caco-2 cells [5]): 0%
- BBB T (%) ([7]; Table 1, 2 h at 37 °C): 0%
- Detection by MALDI-TOF MS in acceptor wells ([7]; after 2 h): not detected

Molecule: CC(C)C[C@H](NC(=O)[C@@H](N)C(C)C)C(=O)N[C@@H](CCCNC(=N)N)C(=O)N1CCC[C@H]1C(=O)N1CCC[C@H]1C(=O)N1CCC[C@H]1C(=O)N[C@H](C(=O)N[C@@H](CC(C)C)C(=O)N[C@@H](CCCNC(=N)N)C(=O)N1CCC[C@H]1C(=O)N1CCC[C@H]1C(=O)N1CCC[C@H]1C(=O)N[C@H](C(=O)N[C@@H](CC(C)C)C(=O)N[C@@H](CCCNC(=N)N)C(=O)N1CCC[C@H]1C(=O)N1CCC[C@H]1C(=O)N1CCC[C@H]1C(=O)O)C(C)C)C(C)C [SAP, H-(VLRPPP)3-OH] (H-VLRPPPVLRPPPVLRPPP-OH)
- Caco-2 T (%) (Caco-2 cells [5]): 0%
- Papp at 2 h, 200 μM ([6]; Table 1, 2 h at 37 °C): 5.5 ± 1.5 ×10⁻⁶ cm/s
- BBB T (%) ([7]; Table 1, 2 h at 37 °C): 5 ± 3%

Molecule: CC[C@H](C)[C@@H](C(=O)N(C)[C@@H](Cc1ccc(O)cc1)C(=O)N1CCC[C@H]1C(=O)N[C@@H](CCCNC(=N)N)C(=O)N(C)[C@@H](Cc1c[nH]cn1)C(N)=O)N(C)C(=O)[C@H](C)NC(=O)[C@@H](N)Cc1c[nH]cn1 [(NMe)HAI, H-HA(NMe)I(NMe)YPR(NMe)H-NH2]
- half-life [1]: > 1440 min
- Internalization with respect to the parent version (HAI) [2]: two-fold increase in internalization
- Internalization with respect to the parent version (HAI) (rat astrocytes [3]): two-fold increase in internalization
- Caco-2 transport (Caco-2 cells [5]): 0.200 ± 0.003
- Papp at 2 h, 200 μM ([6]; Table 2, 2 h at 37 °C): 11.7 ± 1.3 ×10⁻⁶ cm/s
- BBB T (%) ([7]; Table 2, 2 h at 37 °C): 13.9 ± 1.6%

Molecule: CC[C@H](C)[C@H](NC(=O)[C@H](C)NC(=O)[C@@H](N)Cc1c[nH]cn1)C(=O)N[C@@H](Cc1ccc(O)cc1)C(=O)N1CCC[C@H]1C(=O)N[C@@H](CCCNC(=N)N)C(=O)N[C@@H](Cc1c[nH]cn1)C(N)=O [HAI, H-HAIYPRH-NH2]
- half-life at 150 μM ([1]; 150 μM in HBSS/human serum 90:10 (v/v)): ~5 min
- Toxicity (MTT assay) [8]: not toxic
- Toxicity (MTT assay) (rat astrocytes [9]): not toxic
- Internalization in presence of transferrin (Tf) ([2]; Cf-HAI 50 μM, flow cytometry): promoted by the addition of Tf
- Internalization at increasing concentrations of peptide ([2]; range of concentrations of Cf-HAI): saturation of internalization
- Internalization in presence of transferrin (Tf) (rat astrocytes [3]; Cf-HAI 50 μM, flow cytometry): promoted by the addition of Tf
- Papp at 2 h, 50 μM [4]: 0.0002 ± 8e-05 ×10⁻⁶ cm/s
- Detection by MALDI-TOF MS in acceptor wells (Caco-2 cells [5]): detected
- Caco-2 T (%) (Caco-2 cells [5]): 0.7 ± 0.3%
- Caco-2 transport (Caco-2 cells [5]): 0.7 ± 0.3
- Papp at 2 h, 200 μM ([6]; Table 1, 2 h at 37 °C): 18 ± 2 ×10⁻⁶ cm/s
- Papp at 2 h, 200 μM ([6]; Table 2, 2 h at 37 °C): 9 ± 5 ×10⁻⁶ cm/s
- BBB T (%) ([7]; Table 1, 2 h at 37 °C): 16 ± 3%
- BBB T (%) ([7]; Table 2, 2 h at 37 °C): 10 ± 3%

Molecule: CC[C@H](C)[C@H](NC(=O)[C@H](CC(=O)O)NC(=O)[C@H](CS)NC(=O)[C@@H]1CCCN1C(=O)[C@@H](NC(=O)CNC(=O)[C@@H]1CCCN1C(=O)[C@H](CCCNC(=N)N)NC(=O)[C@@H]1CCCN1C(=O)[C@H](CC(N)=O)NC(=O)[C@H](CCC(=O)O)NC(=O)[C@@H]1CCCN1C(=O)[C@H](CCSC)NC(=O)[C@H](Cc1c[nH]c2ccccc12)NC(=O)[C@@H](NC(=O)[C@@H](NC(=O)[C@@H](N)Cc1ccc(O)cc1)[C@@H](C)O)[C@@H](C)CC)[C@@H](C)O)C(=O)N[C@@H](Cc1ccccc1)C(=O)N[C@H](C(=O)N[C@@H](CC(N)=O)C(=O)N[C@@H](CO)C(=O)N[C@@H](CCCNC(=N)N)C(=O)NCC(=O)N[C@@H](CCCCN)C(=O)N[C@@H](CCCNC(=N)N)C(=O)N[C@@H](C)C(=O)N[C@@H](CO)C(=O)N[C@@H](CC(N)=O)C(=O)NCC(=O)O)[C@@H](C)O [RVG]
- Caco-2 Papp (Caco-2 cells [10]): 0 cm/s
- Caco-2 T (%) (Caco-2 cells [10]): 0%
- BBB T (%) [11]: 0.29 ± 0.03%
- Papp (in vitro): 0.28 ± 0.02 ×10⁻⁶ cm/s
